# According to article PMC6689897, “Drugging an undruggable pocket on KRAS” (Proceedings of the National Academy of Sciences of the …, 2019):
# Target: GCP-KRASG12D (Homo sapiens, UniProt P01116, G12D)
# Assay: HSQC NMR KD of fragment hits
# Assay type: binding
# Conditions: fragment screen hits, active form of KRAS
# Text: Next, we attempted to identify compounds that bind to GTP-KRAS via fragment-based screening ([21]–[23]). A library of 1,800 fragments was screened using both saturation transfer difference NMR ([24], [25]) and microscale thermophoresis ([26]) using KRAS^G12V-phosphomethylphosphonic acid guanylate ester (GCP-KRAS^G12V), from which 16 fragments were found and subsequently validated (hit rate 0.9%) by the observation of cross-peak shifts in the 2D ^1H/^15N heteronuclear single-quantum correlation (HSQC) NMR spectra of GCP-KRAS^G12D. We also screened a library of 13,800 compounds using uniformly ^15N-labeled GNP-KRAS by HSQC NMR experiments. Representatives of some of the fragments which bound the active form of KRAS from the 2 screens are depicted in Fig. 1A. […]
# 98 Measurement of dissociation constants KD for the compounds synthesized. NMR
# 99 was initially the only method that could provide K Ds for the weakly binding molecules to
# 100 support compound optimization. 1H/15N SoFast HMQC experiments(3) were recorded in
# 101 3mm NMR tubes (170µL filling) at a protein concentration of 70-100µM. Spectra were
# 102 recorded on a Avance III 700MHz spectrometer equipped with a cryogenically cooled
# 103 5mm TCI probe and 48 scans, 128 f1 increments and 2k data points in f2. Total
# 104 acquisition time was 22 minutes. 4 – 6 titration points were performed w ith individual
# 105 samples for each titration point made from 50mM DMSO -d6 stock solutions. Total
# 106 DMSO-d6 concentration was kept constant by backfilling every sample to a total of 4%
# 107 DMSO. KDs were calculated from the differences in chemical shift induced by t he small
# 108 molecules upon interacting with the protein. Average chemical shifts from the 1H and 15N
# 109 dimension were calculated according to the following equation:
# 110 ∆δobs = √[δH2 + (α ∙δN)2] with α set to 0.14
# 111 The Δδobs values at the respective ligand concentrations and the total concentration
# 112 of protein allow a fit to the KD value of the ligand as long as it is binding under fast
# 113 exchange conditions as was the case for most of the compounds tested.(4) Usually Δδobs
# 115 following equation was used to determine the individual KDs: […]
# 121 HEPES, 150 mM NaCl, 3% DMSO, pH 7.5. All measurements were carried out at 25°C.
# 122 Titrations were performed in inverse mode. The cell was loaded with compound solutions
# 123 in the range of 10 to 100 µM. All injections were performed using an initial injection of
# 124 0.5 μL followed by 19 injections of 2 μL of protein in the range of 130-500 µM. The data
# 125 were analyzed with the MicroCal PEAQ-ITC analysis software package. The first data
# Chain of GCP-KRASG12D (P01116 1-169 isoform P01116-2 G12D): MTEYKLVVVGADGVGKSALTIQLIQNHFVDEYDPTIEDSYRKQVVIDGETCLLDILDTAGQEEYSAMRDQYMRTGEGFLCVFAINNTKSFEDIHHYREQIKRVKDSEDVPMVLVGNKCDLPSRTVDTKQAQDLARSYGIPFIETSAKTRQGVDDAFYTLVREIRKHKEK
row,Structure (SMILES),Kd
1,Clc1ccc2[nH]c3c(c2c1)CNCC3 [Compound 2],> 2 mM
2,Nc1ccc2nc(Cc3c[nH]c4ccccc34)[nH]c2c1 [Compound 7],1.3 mM

# Now from value to compound:
row,Kd,Structure (SMILES)
1,> 2 mM,Nc1nc2ccccc2n1Cc1ccccc1 [Compound 4]
2,> 2 mM,O=C(c1c[nH]c2ccccc12)N1CCNCC1 [Compound 3]
3,> 5 mM,c1ccc2c(CN3CCOCC3)c[nH]c2c1 [Compound 6]
